Read-outs that look alike come from different tables or passages of the source.
Columns and labels:
Type in all cases: biochemical
[1] = target: rnADAMTS-5 (1-564-6H) (Rattus norvegicus (Rat), UniProt Q6TY19); experiment: Rat ADAMTS-5 TBIS-1 substrate cleavage assay; conditions: rnADAMTS-5, TBIS-1 substrate, 120 min at 37° C.; read-out: Rat ADAMTS-5 potency IC50
Protocol: The basis for the assay is the cleavage of the substrate TBIS-1 (5 FAM-[…] (5TAMRA)K-NH2) (SEQ ID NO: 2) by rnADAMTS-5 (1-564-6H).
(§1) The reaction is initiated by adding to the assay plate TBIS-1 (10 μL, 4.5 μM, Anaspec) in the same buffer.
Finally, the fluorescence is read on the Envision (Perkin Elmer) after an incubation of 120 min at 37° C. (Excitation 485 nm, emission 535).

[2] = target: human ADAMTS-5 (Homo sapiens (Human), UniProt Q9UNA0); experiment: hADAMTS-5 TBIS-1 cleavage assay, Protocol 3; conditions: Protocol 3, TBIS-1 substrate, 90 min at 37° C.; read-out: hADAMTS-5 potency IC50
Chain of human ADAMTS-5 (Q9UNA0 262-930): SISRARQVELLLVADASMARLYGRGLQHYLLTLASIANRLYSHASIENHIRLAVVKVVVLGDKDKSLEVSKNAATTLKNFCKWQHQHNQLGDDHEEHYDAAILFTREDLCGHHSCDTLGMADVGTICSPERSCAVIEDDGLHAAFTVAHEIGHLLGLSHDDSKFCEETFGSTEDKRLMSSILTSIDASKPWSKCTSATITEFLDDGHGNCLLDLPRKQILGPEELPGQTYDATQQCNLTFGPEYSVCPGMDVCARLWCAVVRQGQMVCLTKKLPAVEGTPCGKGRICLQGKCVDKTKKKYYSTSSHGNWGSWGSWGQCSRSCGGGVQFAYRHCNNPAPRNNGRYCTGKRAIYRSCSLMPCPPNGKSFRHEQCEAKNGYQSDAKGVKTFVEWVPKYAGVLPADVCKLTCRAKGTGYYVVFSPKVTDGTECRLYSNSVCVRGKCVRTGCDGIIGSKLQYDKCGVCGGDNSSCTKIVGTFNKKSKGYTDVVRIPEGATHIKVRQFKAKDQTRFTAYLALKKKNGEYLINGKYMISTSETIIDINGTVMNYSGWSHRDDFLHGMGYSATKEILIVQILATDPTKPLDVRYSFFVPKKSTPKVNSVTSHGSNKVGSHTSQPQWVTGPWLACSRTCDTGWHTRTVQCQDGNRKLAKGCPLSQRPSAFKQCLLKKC
Protocol: as §1
Finally, the fluorescence is read on the Envision (Perkin Elmer) after an incubation of 90 min at 37° C. (Excitation 485 nm, emission 530).

[3] = target: human ADAMTS6 (Homo sapiens (Human), UniProt Q9UKP5); experiment: hADAMTS-6 520 MMP FRET substrate XII cleavage assay; conditions: 37° C. for 2 h, read-out: hADAMTS-6 potency IC50
Chain of human ADAMTS6 (Q9UKP5 other isoform, or with tags, fused parts or gaps): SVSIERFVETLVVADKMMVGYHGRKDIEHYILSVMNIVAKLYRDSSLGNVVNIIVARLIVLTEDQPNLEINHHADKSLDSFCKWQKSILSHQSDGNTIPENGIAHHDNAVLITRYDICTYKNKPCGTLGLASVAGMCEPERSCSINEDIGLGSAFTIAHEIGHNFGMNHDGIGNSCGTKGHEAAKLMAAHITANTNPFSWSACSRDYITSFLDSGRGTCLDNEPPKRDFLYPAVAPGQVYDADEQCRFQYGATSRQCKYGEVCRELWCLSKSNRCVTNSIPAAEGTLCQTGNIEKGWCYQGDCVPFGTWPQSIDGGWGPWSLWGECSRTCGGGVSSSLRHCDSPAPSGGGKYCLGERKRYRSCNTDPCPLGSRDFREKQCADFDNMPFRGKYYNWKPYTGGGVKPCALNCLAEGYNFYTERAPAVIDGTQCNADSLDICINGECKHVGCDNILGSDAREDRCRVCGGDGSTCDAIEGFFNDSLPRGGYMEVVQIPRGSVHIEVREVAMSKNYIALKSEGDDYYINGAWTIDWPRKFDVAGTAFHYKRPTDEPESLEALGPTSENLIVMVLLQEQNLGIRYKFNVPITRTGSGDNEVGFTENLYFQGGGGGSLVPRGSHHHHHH
Summary of the method: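 FRET cleavage of 520 MMP Substrate XII (Arg-Pro-Lys-Pro-Tyr-Ala-Nva-Trp-Met-Lys) by 0.73 nM enzyme in 25 mM Tris pH8.0, 0.05% CHAPS, 2.5 mM CaCl2. Compound dilution series from 20 μM top, 1/5 steps; substrate added from 1 μM stock, 2 h at 37° C. Fluorescence read at exc485/em530 for IC50.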

[4] = target: human TACE (Homo sapiens (Human), UniProt P78536); experiment: hTACE 5FAM-[…]-5TAMRA cleavage assay; conditions: 75 min at room temperature, read-out: hTACE potency IC50
Chain of human TACE (P78536 215-671): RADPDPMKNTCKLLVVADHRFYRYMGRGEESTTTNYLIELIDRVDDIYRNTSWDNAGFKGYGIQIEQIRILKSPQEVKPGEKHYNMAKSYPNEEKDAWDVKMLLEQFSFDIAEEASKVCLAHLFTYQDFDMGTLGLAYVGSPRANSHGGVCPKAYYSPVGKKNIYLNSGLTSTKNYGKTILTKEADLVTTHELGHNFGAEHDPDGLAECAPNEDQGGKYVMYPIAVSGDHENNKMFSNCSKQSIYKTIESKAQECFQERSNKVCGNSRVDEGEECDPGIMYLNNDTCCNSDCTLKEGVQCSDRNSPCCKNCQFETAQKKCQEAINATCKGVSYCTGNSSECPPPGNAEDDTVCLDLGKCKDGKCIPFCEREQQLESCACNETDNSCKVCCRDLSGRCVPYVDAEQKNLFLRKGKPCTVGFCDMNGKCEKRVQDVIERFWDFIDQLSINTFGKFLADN
Protocol: Finally, the fluorescence is read on the Envision (Perkin Elmer) after an incubation of 75 min at room temperature (Excitation 485 nm, Emission 530).

[5] = target: T1, human MMP13 (Homo sapiens (Human), UniProt P45452); experiment: hMMP13 390 MMP FRET Substrate I cleavage assay, Protocol 1; conditions: Protocol 1, 390 MMP FRET Substrate I; read-out: hMMP-13 potency IC50
Protocol: (§2) The basis for the assay is the cleavage of the substrate 390 MMP FRET Substrate I (Anaspec Cat# AS-27076) by human MMP13 (Chemicon, Cat#CC068).
(§3) Human MMP13 is preactivated by incubated the enzyme in the same buffer complemented with 1 mM freshly prepared p-Aminophenylmercuric acetate (AMPA) for 1 h at 37° C.
(§4) The reaction is initiated by adding to the assay plate 390 MMP FRET Substrate I (10 μL, 2.5 μM) in the same buffer.
(§5) Finally, the fluorescence is read on the Envision (Perkin Elmer) after an incubation of 45 min at room temperature (Excitation 485 nm, Emission 530).

[6] = target: T1, human MMP13; experiment: hMMP13 390 MMP FRET Substrate I cleavage assay, Protocol 2; conditions: Protocol 2, 390 MMP FRET Substrate I; read-out: hMMP-13 potency IC50
Protocol: as §2, §3, §4, §5

[7] = target: human MMP14 (Homo sapiens (Human), UniProt P50281); experiment: hMMP14 390 MMP FRET Substrate I cleavage assay; conditions: 60 min at room temperature, read-out: hMMP-14 potency IC50
Protocol: The basis for the assay is the cleavage of the substrate 390 MMP FRET Substrate I (Anaspec Cat# AS-27076) by human MMP14 (Biomol, Cat#SE-259).
as §4
Finally, the fluorescence is read on the Envision (Perkin Elmer) after an incubation of 60 min at room temperature (Excitation 485 nm, Emission 530).

Chain of rnADAMTS-5 (1-564-6H) (Q6TY19 entry or part of it): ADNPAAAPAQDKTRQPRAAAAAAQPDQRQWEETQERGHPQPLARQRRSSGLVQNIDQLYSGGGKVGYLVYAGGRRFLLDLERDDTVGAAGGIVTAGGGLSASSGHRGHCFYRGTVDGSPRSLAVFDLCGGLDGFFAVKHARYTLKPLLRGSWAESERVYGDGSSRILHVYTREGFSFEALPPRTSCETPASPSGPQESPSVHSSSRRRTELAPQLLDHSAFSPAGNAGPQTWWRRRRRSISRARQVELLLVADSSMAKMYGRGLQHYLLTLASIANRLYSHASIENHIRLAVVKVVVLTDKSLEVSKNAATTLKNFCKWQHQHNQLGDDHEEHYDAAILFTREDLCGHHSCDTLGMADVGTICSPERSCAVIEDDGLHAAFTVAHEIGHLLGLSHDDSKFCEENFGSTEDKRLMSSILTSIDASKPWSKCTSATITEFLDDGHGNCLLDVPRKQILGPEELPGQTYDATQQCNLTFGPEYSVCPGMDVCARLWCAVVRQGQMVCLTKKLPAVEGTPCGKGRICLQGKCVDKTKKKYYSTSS

SMILES | IC50 [1] [nM] | IC50 [2] [nM] | IC50 [3] [nM] | IC50 ([4]; 5FAM-LAQAVRSSSRK-5TAMRA) [nM] | IC50 [5] [nM] | IC50 ([4]; 5FAM-[…]-5TAMRA) [nM] | IC50 [6] [nM] | IC50 [7] [nM]
O=C1NC(=O)C(CCC(=O)N2CCC(c3cccc(Cl)c3)CC2)(C2CC2)N1 (stereo not shown) [Cpd 18, 5-(3-(4-(3-chlorophenyl)piperidin-1-yl)-3-oxopropyl)-5-cyclopropyl-imidazolidine-2,4-dione] | 50 to 100 | 25 to 50 | > 100 | > 100 | > 100 |  |  | 
COc1cc(C2CCN(C(=O)CC[C@H]3NC(=O)NC3=O)CC2)cc(OC)c1Cl [Cpd 21, (R)-5-(3-(4-(4-chloro-3,5-dimethoxy-phenyl)piperidin-1-yl)-3-oxopropyl) imidazolidine-2,4-dione] | > 100 | > 100 | 0.001 to 25 | > 100 | > 100 |  |  | 
C[C@@H](C[C@@]1(C)NC(=O)NC1=O)C(=O)N1CCC(c2ccc(Cl)cc2)CC1 (stereo in doubt) [Cpd 24, 5-(3-(4-(4-chlorophenyl)piperidin-1-yl)-2-methyl-3-oxopropyl)-5-methyl imidazolidine-2,4-dione] | 50 to 100 | 50 to 100 | 0.001 to 25 | > 100 | > 100 |  |  | 
C[C@@H](C[C@@]1(C)NC(=O)NC1=O)C(=O)N1CCC(c2cccc(F)c2)CC1 (stereo in doubt) [Cpd 28, 5-(3-(4-(3-fluorophenyl)piperidin-1-yl)-2-methyl-3-oxopropyl)-5-methyl-imidazolidine-2,4-dione] | 0.001 to 25 | 25 to 50 | 50 to 100 | > 100 | > 100 |  |  | 
COc1cc(C2CCN(C(=O)CCC3(C)NC(=O)NC3=O)CC2)cc(OC)c1Cl (stereo not shown) [Cpd 22, 5-(3-(4-(4-chloro-3,5-dimethoxy-phenyl)piperidin-1-yl)-3-oxopropyl)-5-methyl-imidazolidine-2,4-dione] | > 100 | > 100 | 0.001 to 25 |  | > 100 | 50 to 100 |  | 
Cc1cc(Cl)c(F)cc1C1CCN(C(=O)CCC2(C)NC(=O)NC2=O)CC1 (stereo not shown) [Cpd 64, 5-(3-(4-(4-chloro-5-fluoro-2-methylphenyl)piperidin-1-yl)-3-oxopropyl)-5-methyl-imidazolidine-2,4-dione] |  | > 100 | 25 to 50 | > 100 |  |  | > 100 | > 100
COc1cc(C2CCN(C(=O)CC[C@@]3(C)NC(=O)NC3=O)CC2)cc(OC)c1F [Cpd 81, (5R)-5-[3-[4-(4-fluoro-3,5-dimethoxy-phenyl)-1-piperidyl]-3-oxo-propyl]-5-methyl-imidazolidine-2,4-dione] |  | 50 to 100 | 0.001 to 25 |  |  | 25 to 50 | > 100 | > 100
COc1cc(F)c(Cl)cc1C1CCN(C(=O)CC[C@@]2(C)NC(=O)NC2=O)CC1 [Cpd 101, (5R)-5-[3-[4-(5-chloro-4-fluoro-2-methoxy-phenyl)-1-piperidyl]-3-oxo-propyl]-5-methyl-imidazolidine-2,4-dione] |  | > 100 | 25 to 50 | > 100 |  |  | > 100 | > 100
CCOc1cc(C2CCN(C(=O)CC[C@@]3(C)NC(=O)NC3=O)CC2)cc(OC)c1Cl [Cpd 87, (5R)-5-[3-[4-(4-chloro-3-ethoxy-5-methoxy-phenyl)-1-piperidyl]-3-oxo-propyl]-5-methyl-imidazolidine-2,4-dione] |  | > 100 | 0.001 to 25 |  |  | 50 to 100 | > 100 | > 100
COc1c(Cl)cccc1C1CCN(C(=O)CCC2(C)NC(=O)NC2=O)CC1 (stereo not shown) [Cpd 75, 5-(3-(4-(3-chloro-2-methoxyphenyl)piperidin-1-yl)-3-oxopropyl)-5-methylimidazolidine-2,4-dione] |  | > 100 | > 100 | > 100 |  |  | > 100 | > 100
COc1cc(C2CCN(C(=O)CCC3(C)NC(=O)NC3=O)CC2)cc(OC)c1F (stereo not shown) [Cpd 72] |  | > 100 | 0.001 to 25 | > 100 |  |  | > 100 | > 100
COc1c(Cl)cccc1C1CCN(C(=O)CC[C@H]2NC(=O)NC2=O)CC1 [Cpd 74, (R)-5-(3-(4-(3-chloro-2-methoxyphenyl)piperidin-1-yl)-3-oxopropyl) imidazolidine-2,4-dione] |  | > 100 | > 100 | > 100 |  |  | > 100 | > 100
COc1cc(C2CCN(C(=O)CC[C@@]3(C)NC(=O)NC3=O)CC2)cc(Cl)c1F [Cpd 80, (5R)-5-[3-[4-(3-chloro-4-fluoro-5-methoxy-phenyl)-1-piperidyl]-3-oxo-propyl]-5-methyl-imidazolidine-2,4-dione] |  | 50 to 100 | 0.001 to 25 |  |  | 25 to 50 | > 100 | > 100

Continued, values first:

IC50 [1] [nM] | IC50 [2] [nM] | IC50 [3] [nM] | IC50 ([4]; 5FAM-LAQAVRSSSRK-5TAMRA) [nM] | IC50 [5] [nM] | IC50 ([4]; 5FAM-[…]-5TAMRA) [nM] | IC50 [6] [nM] | IC50 [7] [nM] | SMILES
 | 50 to 100 | 0.001 to 25 |  |  | 50 to 100 | > 100 | > 100 | COc1cc(Cl)c(F)cc1C1CCN(C(=O)C(C)CC2(C)NC(=O)NC2=O)CC1 (stereo not shown) [Cpd 110, 5-[3-[4-(4-chloro-5-fluoro-2-methoxy-phenyl)-1-piperidyl]-2-methyl-3-oxo-propyl]-5-methyl-imidazolidine-2,4-dione]
 | > 100 | 0.001 to 25 |  |  | 25 to 50 | > 100 | > 100 | CCc1cc(C2CCN(C(=O)CC[C@@]3(C)NC(=O)NC3=O)CC2)cc(OC)c1Cl [Cpd 105, (5R)-5-[3-[4-(4-chloro-3-ethyl-5-methoxy-phenyl)-1-piperidyl]-3-oxo-propyl]-5-methyl-imidazolidine-2,4-dione]
 | > 100 | 0.001 to 25 |  |  | 50 to 100 | > 100 | > 100 | CCc1cc(C2CCN(C(=O)CC[C@H]3NC(=O)NC3=O)CC2)cc(OC)c1Cl [Cpd 106, (5R)-5-[3-[4-(4-chloro-3-ethyl-5-methoxy-phenyl)-1-piperidyl]-3-oxo-propyl] imidazolidine-2,4-dione]
 | 25 to 50 | 0.001 to 25 |  |  | 50 to 100 | > 100 | > 100 | CCc1cc(C2CCN(C(=O)[C@@H](C)C[C@@]3(COC)NC(=O)NC3=O)CC2)cc(OC)c1Cl (stereo in doubt) [Cpd 104, 5-[3-[4-(4-chloro-3-ethyl-5-methoxy-phenyl)-1-piperidyl]-2-methyl-3-oxo-propyl]-5-(methoxymethyl) imidazolidine-2,4-dione]
 | 25 to 50 | 0.001 to 25 |  |  | 50 to 100 | > 100 | > 100 | COC[C@]1(C[C@H](C)C(=O)N2CCC(c3cc(C)c(Cl)c(OC)c3)CC2)NC(=O)NC1=O (stereo in doubt) [Cpd 114, 5-[3-[4-(4-chloro-3-methoxy-5-methyl-phenyl)-1-piperidyl]-2-methyl-3-oxo-propyl]-5-(methoxymethyl) imidazolidine-2,4-dione]
 | 25 to 50 | 0.001 to 25 |  |  | 50 to 100 | > 100 | > 100 | COc1cc(C2CCN(C(=O)[C@@H](C)C[C@@]3(C)NC(=O)NC3=O)CC2)cc(F)c1Cl [Cpd 102]
 | 25 to 50 | 0.001 to 25 |  |  | 50 to 100 | > 100 | > 100 | COc1cc(C2CCN(C(=O)[C@@H](C)C[C@@]3(C)NC(=O)NC3=O)CC2)cc(C)c1Cl (stereo in doubt) [Cpd 113, 5-[3-[4-(4-chloro-3-methoxy-5-methyl-phenyl)-1-piperidyl]-2-methyl-3-oxo-propyl]-5-methyl-imidazolidine-2,4-dione]
